Measurements as given in ChEMBL document CHEMBL1649226, “Species identification and antifungal susceptibility patterns of species belonging to Aspergillus section Nigri” (2009).

Assays:
Type in all cases: functional
Aspergillus tubingensis [1] = assay: Antifungal activity against Aspergillus tubingensis isolate CM-3585 after 48 hrs by EUCAST broth dilution method; conditions: isolate CM-3585, 48 h
Aspergillus niger [2] = assay: Antifungal activity against Aspergillus niger isolate CM-3506 obtained from respiratory tract infection of patient after 48 hrs by EUCAST broth dilution method; conditions: isolate CM-3506, 48 h
Aspergillus niger [3] = assay: Antifungal activity against Aspergillus niger isolate CM-3236 obtained from respiratory tract infection of patient after 48 hrs by EUCAST broth dilution method; conditions: isolate CM-3236, 48 h
Aspergillus tubingensis [4] = assay: Antifungal activity against Aspergillus tubingensis isolate CM-4001 after 48 hrs by EUCAST broth dilution method; conditions: isolate CM-4001, 48 h
Aspergillus niger [5] = assay: Antifungal activity against Aspergillus niger isolate CM-3257 obtained from respiratory tract infection of patient after 48 hrs by EUCAST broth dilution method; conditions: isolate CM-3257, 48 h
Aspergillus niger [6] = assay: Antifungal activity against Aspergillus niger isolate CM-3672 obtained from cutaneous layer of patient after 48 hrs by EUCAST broth dilution method; conditions: isolate CM-3672, 48 h
Aspergillus tubingensis [7] = assay: Antifungal activity against Aspergillus tubingensis isolate CM-4897 obtained from blood culture after 48 hrs by EUCAST broth dilution method; conditions: isolate CM-4897, 48 h
Aspergillus foetidus [8] = assay: Antifungal activity against Aspergillus foetidus isolate CM-4002 after 48 hrs by EUCAST broth dilution method; conditions: isolate CM-4002, 48 h
Aspergillus niger [9] = assay: Antifungal activity against Aspergillus niger isolate CM-5095 obtained from respiratory tract infection of patient after 48 hrs by EUCAST broth dilution method; conditions: isolate CM-5095, 48 h
Aspergillus tubingensis [10] = assay: Antifungal activity against Aspergillus tubingensis isolate CM-4003 after 48 hrs by EUCAST broth dilution method; conditions: isolate CM-4003, 48 h
Aspergillus tubingensis [11] = assay: Antifungal activity against Aspergillus tubingensis isolate CM-4005 after 48 hrs by EUCAST broth dilution method; conditions: isolate CM-4005, 48 h
Aspergillus niger [12] = assay: Antifungal activity against Aspergillus niger isolate CM-3551 obtained from respiratory tract infection of patient after 48 hrs by EUCAST broth dilution method; conditions: isolate CM-3551, 48 h
Aspergillus tubingensis [13] = assay: Antifungal activity against Aspergillus tubingensis isolate CM-3654 obtained from blood culture after 48 hrs by EUCAST broth dilution method; conditions: isolate CM-3654, 48 h
Aspergillus niger [14] = assay: Antifungal activity against Aspergillus niger isolate CM-4262 after 48 hrs by EUCAST broth dilution method Ophthalmic; conditions: isolate CM-4262, 48 h
Aspergillus tubingensis [15] = assay: Antifungal activity against Aspergillus tubingensis isolate CM-3125 obtained from respiratory tract infection of patient after 48 hrs by EUCAST broth dilution method; conditions: isolate CM-3125, 48 h
Aspergillus tubingensis [16] = assay: Antifungal activity against Aspergillus tubingensis isolate CM-3810 obtained from respiratory tract infection of patient after 48 hrs by EUCAST broth dilution method; conditions: isolate CM-3810, 48 h
Aspergillus niger [17] = assay: Antifungal activity against Aspergillus niger isolate CM-4004 obtained from after 48 hrs by EUCAST broth dilution method; conditions: isolate CM-4004, 48 h
Aspergillus niger [18] = assay: Antifungal activity against Aspergillus niger isolate CM-3641 obtained from respiratory tract infection of patient after 48 hrs by EUCAST broth dilution method; conditions: isolate CM-3641, 48 h
Aspergillus tubingensis [19] = assay: Antifungal activity against Aspergillus tubingensis isolate CM-3177 obtained from respiratory tract infection of patient after 48 hrs by EUCAST broth dilution method; conditions: isolate CM-3177, 48 h
Aspergillus niger [20] = assay: Antifungal activity against Aspergillus niger isolate CM-3636 obtained from respiratory tract infection of patient after 48 hrs by EUCAST broth dilution method; conditions: isolate CM-3636, 48 h
Aspergillus niger [21] = assay: Antifungal activity against Aspergillus niger isolate CM-4316 obtained from respiratory tract infection of patient after 48 hrs by EUCAST broth dilution method; conditions: isolate CM-4316, 48 h
Aspergillus tubingensis [22] = assay: Antifungal activity against Aspergillus tubingensis isolate CM-4296 obtained from respiratory tract infection of patient after 48 hrs by EUCAST broth dilution method; conditions: isolate CM-4296, 48 h
Aspergillus tubingensis [23] = assay: Antifungal activity against Aspergillus tubingensis isolate CM-4000 after 48 hrs by EUCAST broth dilution method; conditions: isolate CM-4000, 48 h
Aspergillus tubingensis [24] = assay: Antifungal activity against Aspergillus tubingensis isolate CM-4688 obtained from respiratory tract infection of patient after 48 hrs by EUCAST broth dilution method; conditions: isolate CM-4688, 48 h
Aspergillus foetidus [25] = assay: Antifungal activity against Aspergillus foetidus isolate CM-5264 obtained from respiratory tract infection of patient after 48 hrs by EUCAST broth dilution method; conditions: isolate CM-5264, 48 h
Aspergillus tubingensis [26] = assay: Antifungal activity against Aspergillus tubingensis isolate CM-3507 obtained from respiratory tract infection of patient after 48 hrs by EUCAST broth dilution method; conditions: isolate CM-3507, 48 h
Aspergillus tubingensis [27] = assay: Antifungal activity against Aspergillus tubingensis isolate CM-4264 obtained from blood culture after 48 hrs by EUCAST broth dilution method; conditions: isolate CM-4264, 48 h
Aspergillus tubingensis [28] = assay: Antifungal activity against Aspergillus tubingensis isolate CM-4352 obtained from respiratory tract infection of patient after 48 hrs by EUCAST broth dilution method; conditions: isolate CM-4352, 48 h
Aspergillus niger [29] = assay: Antifungal activity against Aspergillus niger isolate CM-3586 obtained from catheter of patient after 48 hrs by EUCAST broth dilution method; conditions: isolate CM-3586, 48 h
Aspergillus tubingensis [30] = assay: Antifungal activity against Aspergillus tubingensis isolate CM-3123 obtained from respiratory tract infection of patient after 48 hrs by EUCAST broth dilution method; conditions: isolate CM-3123, 48 h
Aspergillus tubingensis [31] = assay: Antifungal activity against Aspergillus tubingensis isolate CM-5094 obtained from respiratory tract infection of patient after 48 hrs by EUCAST broth dilution method; conditions: isolate CM-5094, 48 h
Aspergillus niger [32] = assay: Antifungal activity against Aspergillus niger isolate CM-4213 obtained from respiratory tract infection of patient after 48 hrs by EUCAST broth dilution method; conditions: isolate CM-4213, 48 h
Aspergillus tubingensis [33] = assay: Antifungal activity against Aspergillus tubingensis isolate CM-4899 obtained from respiratory tract infection of patient after 48 hrs by EUCAST broth dilution method; conditions: isolate CM-4899, 48 h
Aspergillus foetidus [34] = assay: Antifungal activity against Aspergillus foetidus isolate CM-4995 obtained from prosthesis after 48 hrs by EUCAST broth dilution method; conditions: isolate CM-4995, 48 h

Measured: MIC

CC[C@@H]([C@H](C)O)n1ncn(-c2ccc(N3CCN(c4ccc(OC[C@@H]5CO[C@@](Cn6cncn6)(c6ccc(F)cc6F)C5)cc4)CC3)cc2)c1=O [POSACONAZOLE]
0.125 µg/mL: Aspergillus niger [18] | Aspergillus niger [21]
0.15 µg/mL: Aspergillus tubingensis [26]
0.03 µg/mL: Aspergillus niger [32]
0.06 µg/mL: Aspergillus tubingensis [31]
0.5 µg/mL: Aspergillus tubingensis [11] | Aspergillus foetidus [25]
0.16 µg/mL: Aspergillus foetidus [34]
0.19 µg/mL: Aspergillus niger [6] | Aspergillus niger [20] | Aspergillus tubingensis [22]
0.12 µg/mL: Aspergillus tubingensis [1] | Aspergillus niger [2] | Aspergillus niger [3] | Aspergillus foetidus [8] | Aspergillus niger [9] | Aspergillus niger [12] | Aspergillus tubingensis [15] | Aspergillus tubingensis [16] | Aspergillus tubingensis [27] | Aspergillus niger [29]
0.25 µg/mL: all other assays above

C[C@@H](c1nc(-c2ccc(C#N)cc2)cs1)[C@](O)(Cn1cncn1)c1ccc(F)cc1F [RAVUCONAZOLE]
0.58 µg/mL: Aspergillus niger [32]
1.67 µg/mL: Aspergillus tubingensis [1] | Aspergillus tubingensis [15] | Aspergillus niger [17]
2.5 µg/mL: Aspergillus tubingensis [4] | Aspergillus tubingensis [13]
3.33 µg/mL: Aspergillus tubingensis [19] | Aspergillus tubingensis [24]
1.5 µg/mL: Aspergillus niger [6] | Aspergillus niger [9] | Aspergillus tubingensis [22] | Aspergillus tubingensis [26] | Aspergillus tubingensis [27]
8 µg/mL: Aspergillus foetidus [25]
4 µg/mL: Aspergillus tubingensis [10] | Aspergillus tubingensis [11]
2.67 µg/mL: Aspergillus foetidus [8] | Aspergillus tubingensis [30] | Aspergillus tubingensis [33]
1 µg/mL: Aspergillus niger [2] | Aspergillus niger [3] | Aspergillus niger [5] | Aspergillus niger [18] | Aspergillus niger [20] | Aspergillus niger [21]
2 µg/mL: all other assays above
